Experimental data: patent publication US20160340656A1, “PEPTIDES DERIVED FROM GSE 24.2 FOR TREATING DISEASES CAUSED BY OXIDATIVE STRESS AND DAMAGE TO DNA” (CONSEJO SUPERIOR DE INVESTIGACIONES CIENTÍFICAS (CSIC), priority 2013, published 2016)
Entries after “also recorded” stand apart in the source; their conditions may differ.

Key:
F9A353V cells = assay: Repair of damage to DNA: Western blot of histone H2AX (Ser139) in F9A353V cells transfected with synthetic peptides; format: cell-based
Method: FIG. 6. Western blot of F9 and F9A353V cells after 24 hours of transfection with chemically synthesized peptides derived from GSE24.2. The peptides indicated on each line of gel were transfected (15 μg of each peptide) on a 30 mm plate. After separating the protein extracts on polyacrylamide gels and transferring them to a nitrocellulose membrane, the membrane was hybridised with an antibody against histone H2AX (Ser139) and then with an antibody against α-tubulin as a loading control.
FIG. 7. Quantification of Western blot of FIG. 6. The signal obtained with histone H2AX (Ser139) was corrected with the signal of α-tubulin considering the signal obtained with the F9 cells transfected with beta-galactosidase (as control) as 1, using the NIH-Image program.
FIG. 8. Western blot of F9 and F9A353V cells after 24 of transfection with the GSE4 peptide at increasing concentrations. […]
FIG. 9. Quantification of the Western blot of FIG. 8. […]
In order to optimise the operating conditions of peptide GSE4, different amounts of peptide GSE4 were transfected into F9A353V cells and the amount of damage to DNA was determined using a specific antibody as was performed in FIG. 6 (FIG. 8). After quantification of the Western blot (FIG. 9), maximum inhibition of damage to DNA was obtained by transfecting 8 μg of peptide GSE4.

[1] = system: AT3487 cells from patients with ataxia telangiectasia; assay: Damage to DNA in AT cells: phosphorylated histone H2AX (Ser139) foci after lentiviral expression of GSE24.2; format: cell-based, human
Method: (§1) FIG. 1. Determination of damage to DNA in AT cells: AT3784 AT cells were infected with a lentiviral vector expressing GSE24.2 or a GFP empty vector and were fixed 24 hours later to be processed and hybridised with an antibody against phosphorylated histone H2AX (Ser139). Control C-1787 cells were used as the negative control. Next they were hybridised with a fluorescein-labelled antibody and were stained with DAPI to locate the nuclei.
To perform this test, cell lines from patients with ataxia telangiectasia (AT, from the Coriell repository) with a mutation in the gene ATM and denominated AT3487 were used. Cell line C-1787 was used as the control cell line. The cells were infected with the bicistronic lentiviral vector pCMV-GFP-GSE24.2. After 48 hours of infection the cells were fixed with formaldehyde and then permeabilized by treating them with Triton X-100. The damage to DNA was estimated by studying the signal after hybridisation of the cells with an antibody against histone H2AX Ser139 and subsequent hybridisation with an antibody bound to fluorescein. The number of foci with stain for histone H2AX/nucleus was determined by confocal microscopy in a total of 200 cells and the data represented as a percentage of cells with a specific number of foci.

AT719 cells = assay: Viability (MTS) in response to bleomycin in AT cells; format: cell-based, human; conditions: increasing concentrations of bleomycin, 72 hours, versus AT736C control
Method: FIG. 5. Determination of the viability in response to bleomycin in AT cells: AT719-P AT cells were infected with a lentiviral vector expressing GSE24.2 or a GFP empty vector and three weeks later they were treated with different doses of bleomycin. AT736C cells were used as a control. The cells were fixed after 72 hours of treatment and viability determined with the MTS reagent. The values represent the result of the test performed in triplicate and express the viability with respect to untreated cells.
Mutations in gene ATM sensitise cells of AT patients to treatment with ionizing radiation or radiomimetic drugs such as bleomycin. In order to verify if the protective effect induced by GSE24.2 in cells of AT patients also extends to radiomimetic agents, AT719 patient cells expressing pCMV-GFP-GSE24.2 or an empty vector expressing only GFP (GFP) were treated with increasing concentrations of bleomycin for 72 hours. After this time, cell viability was evaluated using MTS reagent. AT736C cells were used as a control.

AT cells (AT3784) = assay: Damage to DNA in AT cells: pCHK2 Thr68 foci after lentiviral expression of GSE24.2; format: cell-based, human
Method: as §1, with “2.” for “1.”, “the kinase pCHK2[…].” for “phosphorylated histone H2AX (Ser139).”, “nuclei. […] Therefore expression of GSE24.2 is able to correct damage to DNA in 28% of cells, confirming the data obtained with phosphorylated histone H2AX.” for “nuclei.”

[2] = 200 cells, lentiviral expression of GSE24.2

| Sequence | amount of peptide transfected giving maximum inhibition of damage to DNA (F9A353V cells; increasing amounts of peptide) | repair of damage to DNA (phosphorylation of histone H2AX) (F9A353V cells; peptides lipofected with Proteojuice, 24 hours) | correction of overall damage to DNA [1] | AT cells in which levels of damage to DNA are reduced [1, 2] | AT cells in which overall damage to DNA is fully corrected [1, 2] | viability after bleomycin (AT719 cells) | cells in which damage to DNA is corrected (AT cells (AT3784)) | fewer AT cells showing basal damage (AT cells (AT3784); after expressing GSE24.2) | reduction of high levels of damage to DNA (AT cells (AT3784); after expressing GSE24.2) |
| --- | --- | --- | --- | --- | --- | --- | --- | --- | --- |
| GFINLDKPSNP [GSE4] | 8 µg | substantially improved the activity of the full domain; also recorded: smallest sized peptide able to repair the damage to DNA | – | – | – | – | – | – | – |
| GFINLDKPSNPSSHEVVAWIRRILRVEKTGHSGTLDPKVTGCLIVCIERATRLVK (GSE24.2; listed as Homo sapiens) [55-amino-acid peptide corresponding to the protein dyskerin; known from WO2007/090911] | – | – | 40% | 25% | 20% | able to increase viability of AT719 cells to levels similar to control cells | 28% | 25% | 13% |
